The subject of one test is Ebola virus (EBOV). As to the kind of experiment: microbe, parasite or virus in culture. The test is classed as cell-based, EBOV-Makona. The note with it: for EC50: Zaire ebolavirus, Huh-7, 72 h, read-out: EC50: effective concentration showing 50% inhibition of virus-expressed ZsGreen fluorescence.
For the next test, the system named is filoviruses. The conditions noted are these: cited from earlier work.
The test system of a further test is coronaviruses. The note with it: cited from earlier work.
In another test the test system is flaviviruses. The note with it: ref unpublished results; cited from earlier work.

Each structure is given as a SMILES string.

Results on 25 compounds are retold here after paper PMC6749450, “Probing the Effects of Pyrimidine Functional Group Switches on Acyclic Fleximer Analogues for Antiviral Activity” (Molecules, 2019).

With `COc1nc(N)ncc1-c1cn(COCCOC(C)=O)cn1` [1-Ac], in the test on Ebola virus (EBOV), the “activity against EBOV (in words)” value is given as “not active against EBOV” and the EC50 was greater than 100 µM.

Consider `CCC(=O)OCCOCn1cnc(-c2cnc(N)nc2OC)c1` [1-EtAc, 2-((4-(2-Amino-4-methoxypyrimidin-5-yl)-1H-imidazol-1-yl)methoxy)ethyl propionate], for which the EC50 in the test on Ebola virus (EBOV) came out at 62.2 ± 19 µM.

Take `COc1nc(N)ncc1-c1cn(COCCOC(=O)C(C)C)cn1` [1-^iPrAc, 2-((4-(2-Amino-4-methoxypyrimidin-5-yl)-1H-imidazol-1-yl)methoxy)ethyl isobutyrate]: in the test on Ebola virus (EBOV), the EC50 is greater than 100 µM.

In the case of `COc1nc(N)ncc1-c1cn(COCCOC(=O)C(C)(C)C)cn1` [1-^tBuAc, 2-((4-(2-Amino-4-methoxypyrimidin-5-yl)-1H-imidazol-1-yl)methoxy)ethyl pivalate], the EC50 in the test with Ebola virus (EBOV) was determined as 7.21 ± 1.85 µM.

For the compound `COc1ncc(-c2cn(COCCOC(C)=O)cn2)c(OC)n1` [2-Ac], the EC50 in the test with Ebola virus (EBOV) is 16.3 ± 11.5 µM.

Consider `CCC(=O)OCCOCn1cnc(-c2cnc(OC)nc2OC)c1` [2-EtAc, 2-((4-(2,4-Dimethoxypyrimidin-5-yl)-1H-imidazol-1-yl)methoxy)ethyl propionate], for which the EC50 with Ebola virus (EBOV) is greater than 100 µM.

Regarding `COc1ncc(-c2cn(COCCOC(=O)C(C)C)cn2)c(OC)n1` [2-^iPrAc, 2-((4-(2,4-Dimethoxypyrimidin-5-yl)-1H-imidazol-1-yl)methoxy)ethyl isobutyrate], the EC50 with Ebola virus (EBOV) was 32 ± 9.12 µM.

Consider `COc1ncc(-c2cn(COCCOC(=O)C(C)(C)C)cn2)c(OC)n1` [2-^tBuAc, 2-((4-(2,4-Dimethoxypyrimidin-5-yl)-1H-imidazol-1-yl)methoxy)ethyl pivalate], for which, in the test on Ebola virus (EBOV), the EC50 came to 81.3 ± 10.2 µM.

For the compound `COc1ncncc1-c1cn(COCCOC(C)=O)cn1` [3-Ac, 2-((4-(4-Methoxypyrimidin-5-yl)-1H-imidazol-1-yl)methoxy)ethyl acetate], the EC50 in the test with Ebola virus (EBOV) turned out to be 35.4 ± 20.4 µM.

Consider `CCC(=O)OCCOCn1cnc(-c2cncnc2OC)c1` [3-EtAc, 2-((4-(4-Methoxypyrimidin-5-yl)-1H-imidazol-1-yl)methoxy)ethyl propionate], for which the EC50 with Ebola virus (EBOV) was determined as 51.9 ± 19.6 µM.

As for `COc1ncncc1-c1cn(COCCOC(=O)C(C)C)cn1` [3-^iPrAc, 2-((4-(4-Methoxypyrimidin-5-yl)-1H-imidazol-1-yl)methoxy)ethyl isobutyrate], the EC50 in the test with Ebola virus (EBOV) was 38.3 ± 28.2 µM.

On to `COc1ncncc1-c1cn(COCCOC(=O)C(C)(C)C)cn1` [3-^tBuAc, 2-((4-(4-Methoxypyrimidin-5-yl)-1H-imidazol-1-yl)methoxy)ethyl pivalate], for which the EC50 with Ebola virus (EBOV) was found to be 51.4 ± 10 µM.

As to `CC(=O)OCCOCn1cnc(-c2cnc(N)nc2)c1` [4-Ac, 2-((4-(2-Aminopyrimidin-5-yl)-1H-imidazol-1-yl)methoxy)ethyl acetate], the EC50 in the test on Ebola virus (EBOV) came to 52.9 ± 28.2 µM.

On to `CCC(=O)OCCOCn1cnc(-c2cnc(N)nc2)c1` [4-EtAc, 2-((4-(2-Aminopyrimidin-5-yl)-1H-imidazol-1-yl)methoxy)ethyl propionate], for which the EC50 in the test on Ebola virus (EBOV) is greater than 100 µM.

As to `CC(C)C(=O)OCCOCn1cnc(-c2cnc(N)nc2)c1` [4-^iPrAc, 2-((4-(2-Aminopyrimidin-5-yl)-1H-imidazol-1-yl)methoxy)ethyl isobutyrate], the EC50 in the test with Ebola virus (EBOV) was found to be 54 ± 23.7 µM.

For the compound `CC(C)(C)C(=O)OCCOCn1cnc(-c2cnc(N)nc2)c1` [4-^tBuAc, 2-((4-(2-Aminopyrimidin-5-yl)-1H-imidazol-1-yl)methoxy)ethyl pivalate], the EC50 in the test with Ebola virus (EBOV) turned out to be 34.4 ± 20 µM.

On to `CC(=O)OCCOCn1cnc(-c2cncnc2N)c1` [5-Ac, 2-((4-(4-Aminopyrimidin-5-yl)-1H-imidazol-1-yl)methoxy)ethyl acetate], for which the EC50 with Ebola virus (EBOV) is greater than 100 µM.

For the compound `CCC(=O)OCCOCn1cnc(-c2cncnc2N)c1` [5-EtAc, 2-((4-(4-Aminopyrimidin-5-yl)-1H-imidazol-1-yl)methoxy)ethyl propionate], the EC50 in the test with Ebola virus (EBOV) is greater than 100 µM.

As for `CC(C)C(=O)OCCOCn1cnc(-c2cncnc2N)c1` [5-^iPrAc, 2-((4-(4-Aminopyrimidin-5-yl)-1H-imidazol-1-yl)methoxy)ethyl isobutyrate], the EC50 in the test on Ebola virus (EBOV) is greater than 100 µM.

For the compound `CC(C)(C)C(=O)OCCOCn1cnc(-c2cncnc2N)c1` [5-^tBuAc, 2-((4-(4-Aminopyrimidin-5-yl)-1H-imidazol-1-yl)methoxy)ethyl pivalate], the EC50 in the test with Ebola virus (EBOV) stood at 72.3 ± 18.7 µM.

As for `COc1nc(N)ncc1-c1cn(COCCO)cn1` [compound 1], the EC50 in the test with Ebola virus (EBOV) was determined as 1.49 ± 0.98 µM. Besides, the “antiviral activity against filoviruses” value in the test with filoviruses is on record as “low micromolar activity”. Further, the “antiviral activity against coronaviruses” value with coronaviruses is “low micromolar activity”. The “antiviral activity against flaviviruses” value with flaviviruses is given as “low micromolar activity”.

On to `COc1ncc(-c2cn(COCCO)cn2)c(OC)n1` [compound 2], for which the EC50 with Ebola virus (EBOV) was 23.4 ± 20.3 µM.

On to `COc1ncncc1-c1cn(COCCO)cn1` [compound 3, 2-((4-(4-Methoxypyrimidin-5-yl)-1H-imidazol-1-yl)methoxy)ethan-1-ol], for which the EC50 in the test with Ebola virus (EBOV) is 78.9 ± 17.1 µM.

For the compound `Nc1ncc(-c2cn(COCCO)cn2)cn1` [compound 4, 2-((4-(2-Aminopyrimidin-5-yl)-1H-imidazol-1-yl)methoxy)ethan-1-ol], in the test on Ebola virus (EBOV), the “activity against EBOV (in words)” value is recorded as “did not display any activity against EBOV” and the EC50 was greater than 100 µM.

As for `Nc1ncncc1-c1cn(COCCO)cn1` [compound 5, 2-((4-(4-Aminopyrimidin-5-yl)-1H-imidazol-1-yl)methoxy)ethan-1-ol], in the test on Ebola virus (EBOV), the “activity against EBOV (in words)” value is “did not display any activity against EBOV” and the EC50 was greater than 100 µM.
